From patent US20250270209A1 (INTERLINE THERAPEUTICS, INC., priority 2022, published 2025)

Legend:
[1] = biological target: T1, wild type LRRK2 overexpressed in recombinant HEK-293T cells (Homo sapiens, UniProt Q5S007); assay: pS935 LRRK2 Cell Assay (HTRF, phospho-LRRK2 Ser935); assay type: cell-based; conditions: LRRK2 Inhibition, Table 8, 2 hours compound incubation
T1 construct: host or cells: HEK293T (transient transfection with pCMV-LRRK2 WT plasmid)
Outline: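 HEK-293T cells transiently transfected with wild-type LRRK2 for 24 h, plated overnight, then treated 2 h at 37° C with compound (top 10 μM, 3-fold, 9 doses, duplicates, 0.2% DMSO). Lysates probed overnight at 23° C by sandwich HTRF for pSer935; 665/615 nm ratio read.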

LRRK2 wild type enzyme = LRRK2 wild type enzyme (Homo sapiens, UniProt Q5S007); assay: Biochemical Assay: LRRK2 TR-FRET (LanthaScreen) kinase assay with LRRKtide substrate; conditions: LRRK2 Inhibition, Table 8
Chain of LRRK2 wild type enzyme (Q5S007 whole entry): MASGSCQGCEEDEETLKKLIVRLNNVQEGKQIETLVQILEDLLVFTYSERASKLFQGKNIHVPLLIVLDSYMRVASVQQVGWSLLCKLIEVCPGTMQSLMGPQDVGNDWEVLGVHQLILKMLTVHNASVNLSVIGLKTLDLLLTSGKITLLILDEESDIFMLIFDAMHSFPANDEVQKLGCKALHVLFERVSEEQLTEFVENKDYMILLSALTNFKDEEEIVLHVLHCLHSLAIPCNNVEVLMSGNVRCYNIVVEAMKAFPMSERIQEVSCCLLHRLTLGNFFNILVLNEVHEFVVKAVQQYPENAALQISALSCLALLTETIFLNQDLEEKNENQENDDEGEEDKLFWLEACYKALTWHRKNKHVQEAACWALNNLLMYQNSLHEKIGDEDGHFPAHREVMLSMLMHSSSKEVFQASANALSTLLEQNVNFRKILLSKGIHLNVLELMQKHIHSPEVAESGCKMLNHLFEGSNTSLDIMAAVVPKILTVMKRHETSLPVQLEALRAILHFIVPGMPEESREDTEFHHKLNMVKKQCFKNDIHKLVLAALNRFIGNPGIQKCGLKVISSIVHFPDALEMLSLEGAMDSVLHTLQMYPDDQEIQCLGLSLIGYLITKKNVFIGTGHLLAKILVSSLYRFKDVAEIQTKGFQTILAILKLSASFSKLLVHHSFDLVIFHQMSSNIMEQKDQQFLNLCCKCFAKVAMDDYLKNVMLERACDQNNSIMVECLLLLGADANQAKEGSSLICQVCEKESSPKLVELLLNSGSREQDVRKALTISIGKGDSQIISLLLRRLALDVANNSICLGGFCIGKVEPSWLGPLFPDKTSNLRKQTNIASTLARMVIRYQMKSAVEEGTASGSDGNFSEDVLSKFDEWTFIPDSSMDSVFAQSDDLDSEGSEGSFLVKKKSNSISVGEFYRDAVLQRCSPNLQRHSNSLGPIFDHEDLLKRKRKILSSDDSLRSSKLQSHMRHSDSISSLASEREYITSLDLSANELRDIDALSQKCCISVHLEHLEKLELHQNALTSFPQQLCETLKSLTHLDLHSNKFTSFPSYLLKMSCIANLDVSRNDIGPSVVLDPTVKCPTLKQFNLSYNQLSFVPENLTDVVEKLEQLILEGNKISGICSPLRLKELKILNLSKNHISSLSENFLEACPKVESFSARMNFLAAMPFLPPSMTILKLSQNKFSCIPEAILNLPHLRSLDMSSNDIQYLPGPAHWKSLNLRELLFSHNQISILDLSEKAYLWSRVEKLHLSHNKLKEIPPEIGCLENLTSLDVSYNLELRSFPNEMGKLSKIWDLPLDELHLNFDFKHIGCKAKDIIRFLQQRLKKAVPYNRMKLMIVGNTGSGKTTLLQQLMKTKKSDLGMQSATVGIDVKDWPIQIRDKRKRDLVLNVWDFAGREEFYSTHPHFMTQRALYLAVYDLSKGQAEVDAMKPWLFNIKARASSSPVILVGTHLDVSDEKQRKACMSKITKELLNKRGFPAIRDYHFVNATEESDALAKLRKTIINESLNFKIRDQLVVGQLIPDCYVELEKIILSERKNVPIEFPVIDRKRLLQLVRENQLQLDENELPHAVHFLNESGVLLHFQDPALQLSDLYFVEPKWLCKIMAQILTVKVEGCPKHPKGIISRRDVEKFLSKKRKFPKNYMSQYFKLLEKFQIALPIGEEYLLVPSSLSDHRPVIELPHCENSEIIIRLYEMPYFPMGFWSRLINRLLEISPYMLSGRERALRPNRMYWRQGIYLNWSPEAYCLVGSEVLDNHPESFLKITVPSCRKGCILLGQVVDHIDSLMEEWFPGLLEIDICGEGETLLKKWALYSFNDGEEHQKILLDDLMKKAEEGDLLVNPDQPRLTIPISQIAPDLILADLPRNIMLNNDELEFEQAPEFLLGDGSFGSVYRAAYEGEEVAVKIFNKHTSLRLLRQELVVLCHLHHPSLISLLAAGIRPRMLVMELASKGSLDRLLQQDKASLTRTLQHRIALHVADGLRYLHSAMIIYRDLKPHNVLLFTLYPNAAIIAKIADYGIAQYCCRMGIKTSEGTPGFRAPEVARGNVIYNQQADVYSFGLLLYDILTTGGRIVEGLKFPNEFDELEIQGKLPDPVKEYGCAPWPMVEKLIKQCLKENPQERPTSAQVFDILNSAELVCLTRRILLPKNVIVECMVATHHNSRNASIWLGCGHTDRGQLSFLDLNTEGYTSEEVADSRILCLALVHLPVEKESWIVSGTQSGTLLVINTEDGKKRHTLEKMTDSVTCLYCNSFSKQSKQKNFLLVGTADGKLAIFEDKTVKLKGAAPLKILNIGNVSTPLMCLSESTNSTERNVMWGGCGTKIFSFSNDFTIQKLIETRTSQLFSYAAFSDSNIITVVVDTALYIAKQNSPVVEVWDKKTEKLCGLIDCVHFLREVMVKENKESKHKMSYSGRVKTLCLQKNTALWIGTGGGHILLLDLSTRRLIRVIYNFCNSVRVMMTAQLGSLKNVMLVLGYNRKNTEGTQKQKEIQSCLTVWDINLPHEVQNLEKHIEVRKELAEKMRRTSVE
Outline: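 Human wild-type LRRK2 (3 nM) preincubated 15 min with compound (11-point, 3-fold, top 10 μM), then reacted 120 min at 23 °C with 400 nM LRRKtide and 25 μM ATP, pH 8.0. Stopped with EDTA; Tb-anti-pLRRKtide TR-FRET read after 30 min.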

T1 sequence (Q5S007 whole entry): as above

Compound | IC50 [1] | IC50 (LRRK2 wild type enzyme)
C[C@@H]1C[C@H](n2c(CC(=O)Nc3cccnc3)nc3cnc4ccc(C#N)cc4c32)CCO1 [Compound 320, N-3-pyridyl{3-[(2R,4R)-2-methyltetrahydro-2H-pyran-4-yl]-12-cyano-3,5,8-triazatricyclo[7.4.0.0^2,6]trideca-1(9),2(6),4,7,10,12-hexaen-4-yl}acetamide] | 6.31 nM | 0.571 nM
C[C@@H]1C[C@H](n2c(CC(=O)Nc3cnc(C(F)(F)F)nc3)nc3cnc4ccc(C#N)cc4c32)CCO1 [Compound 321, N-[2-(trifluoromethyl)-5-pyrimidinyl]{3-[(2R,4R)-2-methyltetrahydro-2H-pyran-4-yl]-12-cyano-3,5,8-triazatricyclo[7.4.0.0^2,6]trideca-1(9),2(6),4,7,10,12-hexaen-4-yl}acetamide] | 25.2 nM | 0.66 nM
C[C@@H]1C[C@H](n2c(CC(=O)Nc3cncnc3)nc3cnc4ccc(C#N)cc4c32)CCO1 [Compound 322, N-5-pyrimidinyl{3-[(2R,4R)-2-methyltetrahydro-2H-pyran-4-yl]-12-cyano-3,5,8-triazatricyclo[7.4.0.0^2,6]trideca-1(9),2(6),4,7,10,12-hexaen-4-yl}acetamide] | 32.2 nM | 1.08 nM
C[C@@H]1C[C@H](n2c(CC(=O)NC3(C)COC3)nc3cnc4ccc(Cl)cc4c32)CCO1 [Compound 323, N-(3-methyl-3-oxetanyl){3-[(2R,4R)-2-methyltetrahydro-2H-pyran-4-yl]-12-chloro-3,5,8-triazatricyclo[7.4.0.0^2,6]trideca-1(9),2(6),4,7,10,12-hexaen-4-yl}acetamide] | 76.9 nM | 2.72 nM
C[C@@H]1C[C@H](n2c(CC(=O)Nc3cccnc3Cl)nc3cnc4ccc(C#N)cc4c32)CCO1 [Compound 324, N-(2-chloro-3-pyridyl){3-[(2R,4R)-2-methyltetrahydro-2H-pyran-4-yl]-12-cyano-3,5,8-triazatricyclo[7.4.0.0^2,6]trideca-1(9),2(6),4,7,10,12-hexaen-4-yl}acetamide] | 3.16 nM | 0.536 nM
C[C@@H]1C[C@H](n2c(CC(=O)Nc3cccnc3)nc3cnc4ccc(Cl)cc4c32)CCO1 [Compound 325, N-3-pyridyl{3-[(2R,4R)-2-methyltetrahydro-2H-pyran-4-yl]-12-chloro-3,5,8-triazatricyclo[7.4.0.0^2,6]trideca-1(9),2(6),4,7,10,12-hexaen-4-yl}acetamide] | 2.54 nM | 0.44 nM
C[C@@H]1C[C@H](n2c(CC(=O)Nc3ccncc3)nc3cnc4ccc(C#N)cc4c32)CCO1 [Compound 326, N-4-pyridyl{3-[(2R,4R)-2-methyltetrahydro-2H-pyran-4-yl]-12-cyano-3,5,8-triazatricyclo[7.4.0.0^2,6]trideca-1(9),2(6),4,7,10,12-hexaen-4-yl}acetamide] | 4.86 nM | 0.492 nM
C[C@@H]1C[C@H](n2c(CC(=O)NC3CC3)nc3cnc4ccc(C(F)(F)F)cc4c32)CCO1 [Compound 327, N-cyclopropyl{3-[(2R,4R)-2-methyltetrahydro-2H-pyran-4-yl]-12-(trifluoromethyl)-3,5,8-triazatricyclo[7.4.0.0^2,6]trideca-1,4,6,8,10,12-hexaen-4-yl}acetamide] | 43.1 nM | 1.41 nM
C[C@@H]1C[C@H](n2c(CC(=O)NC3(C)CC3)nc3cnc4ccc(C#N)cc4c32)CCO1 [Compound 328, N-1-methylcyclopropyl{3-[(2R,4R)-2-methyltetrahydro-2H-pyran-4-yl]-12-cyano-3,5,8-triazatricyclo[7.4.0.0^2,6]trideca-1(9),2(6),4,7,10,12-hexaen-4-yl}acetamide] | 54.7 nM | 1.86 nM
Cc1ncc(NC(=O)Cc2nc3cnc4ccc(C#N)cc4c3n2[C@@H]2CCO[C@H](C)C2)cn1 [Compound 329, N-(2-methyl-5-pyrimidinyl){3-[(2R,4R)-2-methyltetrahydro-2H-pyran-4-yl]-12-cyano-3,5,8-triazatricyclo[7.4.0.0^2,6]trideca-1(9),2(6),4,7,10,12-hexaen-4-yl}acetamide] | 16.5 nM | 0.483 nM
C[C@@H]1C[C@H](n2c(CC(=O)Nc3ccccc3)nc3cnc4ccc(C#N)cc4c32)CCO1 [Compound 330, N-phenyl{3-[(2R,4R)-2-methyltetrahydro-2H-pyran-4-yl]-12-cyano-3,5,8-triazatricyclo[7.4.0.0^2,6]trideca-1(9),2(6),4,7,10,12-hexaen-4-yl}acetamide] | 4.68 nM | 0.507 nM
C[C@@H]1C[C@H](n2c(CC(=O)Nc3cncnc3)nc3cnc4ccc(Cl)cc4c32)CCO1 [Compound 331, N-5-pyrimidinyl{3-[(2R,4R)-2-methyltetrahydro-2H-pyran-4-yl]-12-chloro-3,5,8-triazatricyclo[7.4.0.0^2,6]trideca-1(9),2(6),4,7,10,12-hexaen-4-yl}acetamide] | 5.73 nM | 0.608 nM
C[C@@H]1C[C@H](n2c(CC(=O)NC3CCC3)nc3cnc4ccc(Cl)cc4c32)CCO1 [Compound 332, N-cyclobutyl{3-[(2R,4R)-2-methyltetrahydro-2H-pyran-4-yl]-12-chloro-3,5,8-triazatricyclo[7.4.0.0^2,6]trideca-1(9),2(6),4,7,10,12-hexaen-4-yl}acetamide] | 10.9 nM | 0.741 nM
C[C@@H]1C[C@H](n2c(CC(=O)NC3(C)CCOC3)nc3cnc4ccc(Cl)cc4c32)CCO1 (stereo partly drawn) [Compound 333, N-(3-methyltetrahydro-3-furyl){3-[(2R,4R)-2-methyltetrahydro-2H-pyran-4-yl]-12-chloro-3,5,8-triazatricyclo[7.4.0.0^2,6]trideca-1(9),2(6),4,7,10,12-hexaen-4-yl}acetamide] | 30.7 nM | 1.27 nM
C[C@@H]1C[C@H](n2c(C(F)(F)C(=O)NCC3CC3)nc3cnc4ccc(C#N)cc4c32)CCO1 [Compound 334] | 26.5 nM | 1.34 nM
C[C@@H]1C[C@H](n2c(CC(=O)Nc3nccs3)nc3cnc4ccc(C#N)cc4c32)CCO1 [Compound 335, N-(1,3-thiazol-2-yl){3-[(2R,4R)-2-methyltetrahydro-2H-pyran-4-yl]-12-cyano-3,5,8-triazatricyclo[7.4.0.0^2,6]trideca-1(9),2(6),4,7,10,12-hexaen-4-yl}acetamide] | 4.06 nM | 0.433 nM
C[C@@H]1C[C@H](n2c(CC(=O)NC3CCCC3)nc3cnc4ccc(C#N)cc4c32)CCO1 [Compound 336, N-cyclopentyl{3-[(2R,4R)-2-methyltetrahydro-2H-pyran-4-yl]-12-cyano-3,5,8-triazatricyclo[7.4.0.0^2,6]trideca-1(9),2(6),4,7,10,12-hexaen-4-yl}acetamide] | 10.2 nM | 0.732 nM
C[C@@H]1C[C@H](n2c(CC(=O)Nc3cnccn3)nc3cnc4ccc(C#N)cc4c32)CCO1 [Compound 337, N-2-pyrazinyl{3-[(2R,4R)-2-methyltetrahydro-2H-pyran-4-yl]-12-cyano-3,5,8-triazatricyclo[7.4.0.0^2,6]trideca-1,4,6,8,10,12-hexaen-4-yl}acetamide] | 1.61 nM | 0.337 nM
C[C@@H]1C[C@H](n2c(CC(=O)Nc3nccc(C4CC4)n3)nc3cnc4ccc(C#N)cc4c32)CCO1 [Compound 338, N-(4-cyclopropyl-2-pyrimidinyl){3-[(2R,4R)-2-methyltetrahydro-2H-pyran-4-yl]-12-cyano-3,5,8-triazatricyclo[7.4.0.0^2,6]trideca-1(9),2(6),4,7,10,12-hexaen-4-yl}acetamide] | 1.87 nM | 0.364 nM
C[C@@H]1C[C@H](n2c(CC(=O)Nc3cc(C(F)(F)F)on3)nc3cnc4ccc(C#N)cc4c32)CCO1 [Compound 339, N-[5-(trifluoromethyl)-3-isoxazolyl]{3-[(2R,4R)-2-methyltetrahydro-2H-pyran-4-yl]-12-cyano-3,5,8-triazatricyclo[7.4.0.0^2,6]trideca-1(9),2(6),4,7,10,12-hexaen-4-yl}acetamide] | 11.6 nM | 1.13 nM
C[C@@H]1C[C@H](n2c(CC(=O)Nc3cc(C4CCC4)no3)nc3cnc4ccc(C#N)cc4c32)CCO1 [Compound 340, N-(3-cyclobutyl-5-isoxazolyl){3-[(2R,4R)-2-methyltetrahydro-2H-pyran-4-yl]-12-cyano-3,5,8-triazatricyclo[7.4.0.0^2,6]trideca-1(9),2(6),4,7,10,12-hexaen-4-yl}acetamide] | 15.7 nM | 1.53 nM
C[C@@H]1C[C@H](n2c(CC(=O)Nc3cc(C(C)(C)F)no3)nc3cnc4ccc(C#N)cc4c32)CCO1 [Compound 341, N-[3-(1-fluoro-1-methylethyl)-5-isoxazolyl]{3-[(2R,4R)-2-methyltetrahydro-2H-pyran-4-yl]-12-cyano-3,5,8-triazatricyclo[7.4.0.0^2,6]trideca-1(9),2(6),4,7,10,12-hexaen-4-yl}acetamide] | 8.13 nM | 0.423 nM
C[C@@H]1C[C@H](n2c(CC(=O)Nc3cc(C(F)(F)F)no3)nc3cnc4ccc(C#N)cc4c32)CCO1 [Compound 342, N-[3-(trifluoromethyl)-5-isoxazolyl]{3-[(2R,4R)-2-methyltetrahydro-2H-pyran-4-yl]-12-cyano-3,5,8-triazatricyclo[7.4.0.0^2,6]trideca-1(9),2(6),4,7,10,12-hexaen-4-yl}acetamide] | 75.1 nM | 2.17 nM
N#Cc1ccc2ncc3nc(CC(=O)NCC4CC4)n(C4CCOCC4)c3c2c1 [Compound 343, N-cyclopropylmethyl{12-cyano-3-(tetrahydro-2H-pyran-4-yl)-3,5,8-triazatricyclo[7.4.0.0^2,6]trideca-1,4,6,8,10,12-hexaen-4-yl}acetamide] | 135 nM | 2.81 nM
